Here are results for six compounds from patent US5308766A (priority 1990, dated 1994).

Data set [1] concerns the target PLA2 obtained from cobra venom (N. naja naja) (Naja naja, UniProt P15445). In kind it is biochemical.
Data set [2] concerns the target phospholipase A2 obtained from cobra venom (Naja naja, UniProt P15445). The data set is classed as biochemical.
The nature of data set [3]: Stability of p-nitrophenyl esters in solvents. In kind it is physicochemical. The note with it: polar solvents such as alcohols. The procedure: Pure samples of 1a-1e were obtained after HPLC chromatography using anhydrous MeOH to elute the lipid from a Brownlee C18 column. […] Storage of these compounds at -10° C. in CHCl3 or CH2 Cl2 greatly enhances the stability. Therefore, HPLC-purified SIBLINKS were immediately transferred to CHCl3 for storage. In an aqueous environment, the stability is enhanced when incorporated into vesicles or Triton micelles. The following are representative spectral data for lipids 1b, 1c, 1d and 1e containing a decanoyl (C10) chain moiety at the sn-1 position.

Data set [4] concerns the target phospholipase A2 obtained from cobra venom (Naja naja naja) (Naja naja, UniProt P15445). The data set is classed as biochemical.
Data set [5] deals with cobra venom phospholipase A2 (PLA2) (Naja naja, UniProt P15445). The note with it: cited from earlier work.
A further data set has as its system PLA2. The note with it: modification of lysine residues; cited from earlier work.
Data set [6] addresses bee venom phospholipase A2 (PLA2) (Apis mellifera, UniProt P00630). Conditions: cited from earlier work.
For data set [7] the following is noted: in vivo; cited from earlier work.

Chain of phospholipase A2 obtained from cobra venom (P15445 whole entry, looked up): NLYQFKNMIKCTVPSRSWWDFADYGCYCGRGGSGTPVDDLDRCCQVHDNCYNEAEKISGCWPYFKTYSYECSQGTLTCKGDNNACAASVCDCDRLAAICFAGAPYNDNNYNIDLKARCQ
Chain of PLA2 obtained from cobra venom (N. naja naja) (P15445 whole entry, looked up): as above
Chain of phospholipase A2 obtained from cobra venom (Naja naja naja) (P15445 whole entry, looked up): as above
Chain of cobra venom phospholipase A2 (PLA2) (P15445 whole entry, looked up): as above
Chain of bee venom phospholipase A2 (PLA2) (P00630 34-167 limits assumed): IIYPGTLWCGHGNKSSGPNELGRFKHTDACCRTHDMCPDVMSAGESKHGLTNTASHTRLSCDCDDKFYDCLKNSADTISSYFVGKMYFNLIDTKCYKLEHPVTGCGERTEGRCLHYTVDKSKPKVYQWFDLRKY

Regarding `CCCCCCCCCC(=O)OC[C@H](COP(=O)([O-])OCC[N+](C)(C)C)OC(=O)CC(C)(C)CC(=O)Oc1ccc([N+](=O)[O-])cc1` [1c], the “V, initial velocity for release of p-nitrophenol” value in data set [1] came out at 0.002 µmol/min/mg. In data set [2], the “efficiency of enzymatic deactivation (suicide inhibition)” value (shortened to “efficiency … (suicide inhibition)”) was “more efficient suicide inhibitors”.

With `CCCCCCCCCC(=O)OC[C@H](COP(=O)([O-])OCC[N+](C)(C)C)OC(=O)CCC(=O)Oc1ccc([N+](=O)[O-])cc1` [1d], the “V, initial velocity for release of p-nitrophenol” value in data set [1] was 0.6 µmol/min/mg. For the same compound, the “stability of p-nitrophenyl ester” value in data set [3] was “especially prone to hydrolysis”. For the same compound, in data set [2], the “concentration below which mixed micelles do not inhibit” value was found to be 20 NM; the “effect on P of raising preincubation temperature” value is “did increase P”; the “effect on inactivation time course of raising preincubation temperature” value was “little effect”; the “efficiency … (suicide inhibition)” value is given as “less efficient, but is processed faster”. For the same compound, the “ratio of inhibitor/PLA2 needed to observe inhibition” value in data set [2] is reported as above 40.

`CCCCCCCCCC(=O)OC[C@H](COP(=O)([O-])OCC[N+](C)(C)C)OC(=O)CC(C)(C)C(=O)Oc1ccc([N+](=O)[O-])cc1` [1e]: the “V, initial velocity for release of p-nitrophenol” value in data set [1] came to 0.005 µmol/min/mg. Besides, the “efficiency … (suicide inhibition)” value in data set [2] is “more efficient suicide inhibitors”.

Regarding `CCCCCCCCCC(=O)OC[C@H](COP(=O)([O-])OCC[N+](C)(C)C)OC(=O)CCCC(=O)Oc1ccc([N+](=O)[O-])cc1` [compound 1a], in data set [4], the “change of hydrolysis rate with Triton/phospholipid surface ratio” value was “diminishes three-fold” and the “concentration of substrate required to reach half saturation, versus DPPC” value was “lower concentration of substrate”. The “V, initial velocity for release of p-nitrophenol” value in data set [1] was determined as 155 µmol/min/mg. Further, the “stability of p-nitrophenyl ester” value in data set [3] is reported as “especially prone to hydrolysis”.

For the compound `CCCCCCCCCC(=O)OC[C@H](COP(=O)([O-])OCC[N+](C)(C)C)OC(=O)CCC(C)(C)C(=O)Oc1ccc([N+](=O)[O-])cc1` [compound 1b], the “V, initial velocity for release of p-nitrophenol” value in data set [1] stood at 0.11 µmol/min/mg. For the same compound, in data set [2], the “effect on P of raising preincubation temperature” value is recorded as “did increase P”, the “effect on inactivation time course of raising preincubation temperature” value is reported as “little effect” and the “efficiency … (suicide inhibition)” value was “more efficient suicide inhibitors”.

In the case of `CC1=C(CC/C(C)=C/CCC2=CC[C@H](C3=CC(=O)O[C@H]3O)O[C@H]2O)C(C)(C)CCC1` [manoalide], in data set [5], the “inhibition of cobra venom PLA2” value is “inhibitor of both cobra and bee venom phospholipase A2”. The “mode of PLA2 inactivation” value in the data set on PLA2 is “time-dependent irreversible inactivation”. Moreover, in data set [6], the “inhibition of bee venom PLA2” value is “inhibitor of both cobra and bee venom phospholipase A2”. In data set [7], the anti-inflammatory activity entry is given as “anti-inflammatory activity in vivo”.
